Measured values taken from patent publication US3952108A, “Scopolamine derivatives for treating ulcers and spasms” (Istituto de Angeli S.p.A., priority 1972, dated 1976).

Tests used:
[1] = test system: rabbit choledochoduodenal junction; experiment: Spasmolytic activity "in vivo" on rabbit choledochoduodenal junction stimulated by neostigmine; conditions: 10 mcg/Kg i.v.; neostigmine 60 mcg/Kg i.v.; activity of scopolamine bromobutylate equal to 1
Excerpt: Spasmolytic activity "in vivo" on rabbit choledochoduodenal junction stimulated by neostigmine (60 mcg/Kg i.v.), after i.v. administration of the compound under examination, according to Luoma P., Acta Pharmacol. e Toxicol., 29, suppl. 1, 5-55 (1971).
(§1) The above experiments have been carried out in comparison with scopolamine bromobutylate as a reference. The results are shown in the following table and are expressed on the basis of the activity of scopolamine bromobutylate being equal to 1.

[2] = test system: Shay ulcer in rats; experiment: Action on Shay ulcer in rats by intraduodenal route; format: in vivo, rat; conditions: 100 mg/Kg i.d., activity of scopolamine bromobutylate equal to 1
Excerpt: Action on Shay ulcer in rats by intraduodenal route according to Shay H., Komarov S. A., Fels S. S., Meranze D., Gruenstein M. and Siplet H., Gastroenterology, 5, 43-61 (1945).
as §1

[3] = test system: gastric secretion in rats; experiment: Action on gastric secretion in rats after intraduodenal administration; format: in vivo, rat; conditions: 40 mg/Kg i.d., activity of scopolamine bromobutylate equal to 1
Excerpt: Action on gastric secretion in rats after intraduodenal administration according to Birnbaum G., Medicina Psicosomatica, 13, 1-4 (1968).
as §1

[4] = Overall evaluation of the spasmolytic and anti-ulcer tests; conditions: versus scopolamine bromobutylate
Excerpt: The properties of the new compounds may be illustrated by the results of the following experiments.
as §1

Compound | % increase of flux, relative to scopolamine bromobutylate = 1 [1] | % of animals protected from ulcer, relative to scopolamine bromobutylate = 1 [2] | inhibition % of the gastric juice, relative to scopolamine bromobutylate = 1 [3] | Activity compared with the reference compound, taking into account the relevant toxicities [4]
C[N+]1(CC2CC2)[C@@H]2C[C@H](OC(=O)[C@H](CO)c3ccccc3)C[C@H]1[C@@H]1O[C@@H]12 (stereo partly drawn) [DA-3177, scopolamine-N-(cyclopropyl-methyl)-bromide] | 0.9 | 1.5 | 1 | higher activities than the reference compound
CC1CC1C[N+]1(C)[C@@H]2C[C@H](OC(=O)[C@H](CO)c3ccccc3)C[C@H]1[C@@H]1O[C@@H]12 (stereo partly drawn) [DA-3235, Scopolamine-N-(2-methyl-cyclopropyl-methyl)-bromide] | 0.8 | 2 | 0.8 | higher activities than the reference compound
C[N+]1(CCC2CC2)[C@@H]2C[C@H](OC(=O)[C@H](CO)c3ccccc3)C[C@H]1[C@@H]1O[C@@H]12 (stereo partly drawn) [DA-3236, scopolamine-N-(cyclopropyl-ethyl)-bromide] | 0.9 | 2 | 1.1 | –
C[N+]1(CC2CCC2)[C@@H]2C[C@H](OC(=O)[C@H](CO)c3ccccc3)C[C@H]1[C@@H]1O[C@@H]12 (stereo partly drawn) [DA-3237, Scopolamine-N-(cyclobutyl-methyl)-bromide] | 1.2 | 2 | 1.2 | higher activities than the reference compound
C[N+]1(CC2CO2)[C@@H]2C[C@H](OC(=O)[C@H](CO)c3ccccc3)C[C@H]1[C@@H]1O[C@@H]12 (stereo partly drawn) [DA-3245, scopolamine-N-(2,3-epoxypropyl)-bromide] | 0.4 | 1.5 | 1.4 | –
CCCC[N+]1(C)[C@@H]2C[C@@H](OC(=O)[C@H](CO)c3ccccc3)C[C@H]1[C@@H]1O[C@@H]12 (stereo partly drawn) [Scopolamine bromobutylate, scopolamine bromobutylate, reference compound] | 1 | 1 | 1 | –
